The results in this text go back to US6784137B2, “6-aryl-4-aminopicolinates and their use as herbicides” (Dow AgroSciences LLC, priority 2001, dated 2004).

As usually defined, the melting point is the temperature of the solid-liquid transition. Turning to `COC(=O)c1nc(-c2cccnc2)cc(N)c1Cl` [Compound 102, Methyl 4-amino-3-chloro-6-(3-pyridyl)pyridine-2-carboxylate], the melting point is 144 to 146 °C.
To `COC(=O)c1nc(-c2ccco2)c(Cl)c(N)c1Cl` [Compound 104, Methyl 4-amino-3,5-dichloro-6-(2-furanyl)pyridine-2-carboxylate] belongs 116 to 117 °C; to `COC(=O)c1nc(-c2ccc(OC)c(OC)c2)cc(NC(C)=O)c1Cl` [Compound 63, Methyl 4-acetamido-3-chloro-6-(3,4-dimethoxyphenyl)pyridine-2-carboxylate], 153 to 154 °C.
To `COC(=O)c1nc(-c2ccc(Cl)c(C)c2)cc(N)c1Cl` [Compound 38, Methyl 4-amino-3-chloro-6-(4-chloro-3-methylphenyl)pyridine-2-carboxylate] belongs 155 to 156 °C; to `COC(=O)c1nc(-c2cc3ccccc3s2)cc(NC(C)=O)c1Cl` [Compound 97, Methyl 4-acetamido-3-chloro-6-(2-benzothienyl)pyridine-2-carboxylate], 184 to 185 °C; to `Nc1cc(-c2ccc(Cl)cc2C(F)(F)F)nc(C(=O)O)c1Cl` [Compound 182, 4-Amino-3-chloro-6-(4-chloro-2-(trifluoromethyl)phenyl)pyridine-2-carboxylic acid], 178 to 180 °C.
To `Cc1ccccc1-c1cc(N)c(Cl)c(C(=O)O)n1` [Compound 165, 4-Amino-3-chloro-6-(2-methylphenyl)pyridine-2-carboxylic acid] belongs 188 to 189 °C.
`CCCCOCCOC(=O)c1nc(-c2ccc(Cl)cc2)c(F)c(N)c1Cl` [Compound 245, 2-Butoxyethyl 4-amino-3-chloro-5-fluoro-6-(4-chlorophenyl)pyridine-2-carboxylate] yielded a melting point of 103 to 104 °C.
Consider `COc1ccc(-c2cc(N)c(Cl)c(C(=O)O)n2)cn1` [Compound 213, 4-Amino-3-chloro-6-(6-methoxy-3-pyridinyl)pyridine-2-carboxylic acid], for which the melting point was 110 °C (dec.).
To `Nc1cc(-c2ccncc2)nc(C(=O)O)c1Cl` [Compound 209, 4-Amino-3-chloro-6-(4-pyridinyl)pyridine-2-carboxylic acid] belongs 155 °C (dec.).
To `COC(=O)c1nc(-c2nccs2)c(F)c(N)c1Cl` [Compound 113, Methyl 4-amino-3-chloro-5-fluoro-6-(2-thiazolyl)pyridine-2-carboxylate] belongs 185 to 187 °C.
Then `COC(=O)c1nc(-c2ccc(O)nc2)cc(N)c1Cl` [Compound 108, Methyl 4-amino-3-chloro-6-(6-hydroxy-3-pyridinyl)pyridine-2-carboxylate], with 251 to 252 °C; and `COC(=O)c1nc(-c2ccc3c(c2)CCO3)cc(N)c1Cl` [Compound 77, Methyl 4-amino-3-chloro-6-(2,3-dihydro-5-benzofuranyl)pyridine-2-carboxylate], with 143 °C; and `Nc1cc(-c2ccc3c(c2)CCC3)nc(C(=O)O)c1Cl` [Compound 188, 4-Amino-3-chloro-6-(5-indanyl)pyridine-2-carboxylic acid], with 204 to 205 °C.
Regarding `COC(=O)c1nc(-c2ccc(C(C)C)cc2)cc(N)c1Cl` [Compound 35, Methyl 4-amino-3-chloro-6-(4-isopropylphenyl)pyridine-2-carboxylate], the melting point lay within 92 to 93 °C.
`COC(=O)c1nc(-c2c(C)noc2C)cc(N)c1Cl` [Compound 100, Methyl 4-amino-3-chloro-6-(3,5-dimethyl-4-isoxazolyl)pyridine-2-carboxylate] showed a melting point of 143 °C.
Consider `COC(=O)c1nc(-c2ccc(CO)cc2)cc(N)c1Cl` [Compound 242, Methyl 4-amino-3-chloro-6-(4-hydroxymethylphenyl)pyridine-2-carboxylate], for which the melting point was 138 to 139 °C.
